# Assays:
# Assay in all cases: KINOMEscan kinase binding assay
# [1] = target: T1, 384 kinases from the human genome (Homo sapiens, UniProt Q96BR1); conditions: kinase SGK3 (Entrez SGK3)
# T1 construct: purchased Eurofin/DiscoverX
# Outline: (§1)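 A panel of 384 human kinases was profiled by KINOMEscan binding in the presence of 10 µM compound. Kinase–ligand binding was given as percent of DMSO control, averaged from duplicates in a single run, with an S(10) selectivity score.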
# [2] = target: T2, 384 kinases from the human genome (Homo sapiens, UniProt O14920); conditions: kinase IKK-beta (Entrez IKBKB)
# T2 construct: purchased Eurofin/DiscoverX
# Outline: as §1
# [3] = target: T3, 384 kinases from the human genome (Homo sapiens, UniProt Q14289); conditions: kinase PYK2 (Entrez PTK2B)
# T3 construct: purchased Eurofin/DiscoverX
# Outline: as §1
# [4] = target: T4, 384 kinases from the human genome (Homo sapiens, UniProt Q8IWQ3); conditions: kinase BRSK2 (Entrez BRSK2)
# T4 construct: purchased Eurofin/DiscoverX
# Outline: as §1
# [5] = target: T5, 384 kinases from the human genome (Homo sapiens, UniProt Q13470); conditions: kinase TNK1 (Entrez TNK1)
# T5 construct: purchased Eurofin/DiscoverX
# T5 sequence (Q13470 whole entry): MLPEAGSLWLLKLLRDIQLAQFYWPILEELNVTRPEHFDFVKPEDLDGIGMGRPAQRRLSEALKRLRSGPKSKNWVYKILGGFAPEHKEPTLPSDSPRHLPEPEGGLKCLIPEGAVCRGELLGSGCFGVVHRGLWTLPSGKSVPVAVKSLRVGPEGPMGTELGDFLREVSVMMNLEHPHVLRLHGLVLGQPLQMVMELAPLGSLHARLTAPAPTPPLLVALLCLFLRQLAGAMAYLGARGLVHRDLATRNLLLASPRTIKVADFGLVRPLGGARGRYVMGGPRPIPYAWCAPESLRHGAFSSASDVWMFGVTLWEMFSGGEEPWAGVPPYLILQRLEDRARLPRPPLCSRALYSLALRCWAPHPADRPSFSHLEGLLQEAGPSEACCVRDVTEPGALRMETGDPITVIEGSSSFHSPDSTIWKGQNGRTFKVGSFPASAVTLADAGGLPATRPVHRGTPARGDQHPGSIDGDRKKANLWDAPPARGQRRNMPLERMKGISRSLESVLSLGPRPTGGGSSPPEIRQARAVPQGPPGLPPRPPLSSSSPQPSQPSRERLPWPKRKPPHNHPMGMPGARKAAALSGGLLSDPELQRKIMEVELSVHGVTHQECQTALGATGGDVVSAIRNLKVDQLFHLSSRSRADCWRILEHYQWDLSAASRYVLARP
# Outline: as §1
# [6] = target: T6, 384 kinases from the human genome (Homo sapiens, UniProt P45985); conditions: kinase MEK4 (Entrez MAP2K4)
# T6 construct: purchased Eurofin/DiscoverX
# Outline: as §1
# [7] = target: T7, 384 kinases from the human genome (Homo sapiens, UniProt P11362); conditions: kinase FGFR1 (Entrez FGFR1)
# T7 construct: purchased Eurofin/DiscoverX
# Outline: as §1
# [8] = target: T8, 384 kinases from the human genome (Homo sapiens, UniProt O43318); conditions: kinase TAK1 (Entrez MAP3K7)
# T8 construct: purchased Eurofin/DiscoverX
# Outline: as §1
# [9] = target: T9, 384 kinases from the human genome (Homo sapiens, UniProt Q12852); conditions: kinase DLK (Entrez MAP3K12)
# T9 construct: purchased Eurofin/DiscoverX
# Outline: as §1
# [10] = target: T10, 384 kinases from the human genome (Homo sapiens, UniProt Q14164); conditions: kinase IKK-epsilon (Entrez IKBKE)
# T10 construct: purchased Eurofin/DiscoverX
# Outline: as §1
# [11] = target: T11, 384 kinases from the human genome (Homo sapiens, UniProt Q9Y5S2); conditions: kinase MRCKB (Entrez CDC42BPB)
# T11 construct: purchased Eurofin/DiscoverX
# T11 sequence (Q9Y5S2 whole entry): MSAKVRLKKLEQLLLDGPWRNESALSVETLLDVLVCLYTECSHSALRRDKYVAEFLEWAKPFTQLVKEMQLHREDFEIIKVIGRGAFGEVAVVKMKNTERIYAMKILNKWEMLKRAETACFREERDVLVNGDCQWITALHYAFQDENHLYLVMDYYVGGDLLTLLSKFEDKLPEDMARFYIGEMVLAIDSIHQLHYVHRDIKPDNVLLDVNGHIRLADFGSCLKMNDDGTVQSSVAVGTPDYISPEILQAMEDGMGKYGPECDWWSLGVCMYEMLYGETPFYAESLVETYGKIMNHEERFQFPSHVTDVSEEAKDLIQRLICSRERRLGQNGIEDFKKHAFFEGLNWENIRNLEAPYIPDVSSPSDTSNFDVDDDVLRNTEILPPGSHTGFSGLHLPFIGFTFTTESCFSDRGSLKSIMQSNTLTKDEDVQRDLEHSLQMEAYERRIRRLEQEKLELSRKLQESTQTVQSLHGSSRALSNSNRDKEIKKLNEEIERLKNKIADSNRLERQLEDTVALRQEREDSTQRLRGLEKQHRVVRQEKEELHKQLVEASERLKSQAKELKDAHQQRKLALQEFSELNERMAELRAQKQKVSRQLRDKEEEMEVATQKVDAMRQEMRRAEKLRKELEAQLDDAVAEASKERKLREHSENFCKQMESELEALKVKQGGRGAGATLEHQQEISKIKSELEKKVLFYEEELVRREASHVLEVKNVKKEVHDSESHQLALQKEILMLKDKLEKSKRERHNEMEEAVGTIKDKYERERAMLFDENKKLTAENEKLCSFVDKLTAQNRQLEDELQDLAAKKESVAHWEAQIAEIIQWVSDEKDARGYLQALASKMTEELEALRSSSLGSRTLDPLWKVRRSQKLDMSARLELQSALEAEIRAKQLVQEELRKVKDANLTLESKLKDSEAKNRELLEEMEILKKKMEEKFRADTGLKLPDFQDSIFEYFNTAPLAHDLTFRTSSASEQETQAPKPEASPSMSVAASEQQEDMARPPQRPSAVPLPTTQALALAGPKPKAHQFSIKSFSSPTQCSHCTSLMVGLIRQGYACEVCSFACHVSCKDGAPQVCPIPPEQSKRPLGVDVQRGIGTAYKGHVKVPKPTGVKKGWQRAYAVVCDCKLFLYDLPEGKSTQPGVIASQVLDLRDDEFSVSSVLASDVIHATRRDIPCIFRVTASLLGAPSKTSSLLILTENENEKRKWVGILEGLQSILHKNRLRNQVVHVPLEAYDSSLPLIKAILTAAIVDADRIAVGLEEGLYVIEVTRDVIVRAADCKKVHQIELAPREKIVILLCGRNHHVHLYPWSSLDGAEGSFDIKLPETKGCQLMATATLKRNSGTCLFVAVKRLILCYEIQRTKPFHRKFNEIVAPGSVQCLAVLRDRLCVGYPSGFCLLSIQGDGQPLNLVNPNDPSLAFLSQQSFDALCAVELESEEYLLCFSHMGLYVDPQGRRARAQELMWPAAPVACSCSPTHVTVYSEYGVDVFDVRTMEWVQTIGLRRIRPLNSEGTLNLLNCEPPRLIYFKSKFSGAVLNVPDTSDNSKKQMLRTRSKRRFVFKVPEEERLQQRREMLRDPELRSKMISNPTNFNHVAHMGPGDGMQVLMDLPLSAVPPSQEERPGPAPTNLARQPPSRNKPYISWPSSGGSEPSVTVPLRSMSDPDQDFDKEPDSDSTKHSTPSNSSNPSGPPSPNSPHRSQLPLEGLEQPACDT
# Outline: as §1
# [12] = target: T12, 384 kinases from the human genome (Homo sapiens, UniProt P00533)
# T12 construct: purchased Eurofin/DiscoverX
# T12 sequence (P00533 25-1210): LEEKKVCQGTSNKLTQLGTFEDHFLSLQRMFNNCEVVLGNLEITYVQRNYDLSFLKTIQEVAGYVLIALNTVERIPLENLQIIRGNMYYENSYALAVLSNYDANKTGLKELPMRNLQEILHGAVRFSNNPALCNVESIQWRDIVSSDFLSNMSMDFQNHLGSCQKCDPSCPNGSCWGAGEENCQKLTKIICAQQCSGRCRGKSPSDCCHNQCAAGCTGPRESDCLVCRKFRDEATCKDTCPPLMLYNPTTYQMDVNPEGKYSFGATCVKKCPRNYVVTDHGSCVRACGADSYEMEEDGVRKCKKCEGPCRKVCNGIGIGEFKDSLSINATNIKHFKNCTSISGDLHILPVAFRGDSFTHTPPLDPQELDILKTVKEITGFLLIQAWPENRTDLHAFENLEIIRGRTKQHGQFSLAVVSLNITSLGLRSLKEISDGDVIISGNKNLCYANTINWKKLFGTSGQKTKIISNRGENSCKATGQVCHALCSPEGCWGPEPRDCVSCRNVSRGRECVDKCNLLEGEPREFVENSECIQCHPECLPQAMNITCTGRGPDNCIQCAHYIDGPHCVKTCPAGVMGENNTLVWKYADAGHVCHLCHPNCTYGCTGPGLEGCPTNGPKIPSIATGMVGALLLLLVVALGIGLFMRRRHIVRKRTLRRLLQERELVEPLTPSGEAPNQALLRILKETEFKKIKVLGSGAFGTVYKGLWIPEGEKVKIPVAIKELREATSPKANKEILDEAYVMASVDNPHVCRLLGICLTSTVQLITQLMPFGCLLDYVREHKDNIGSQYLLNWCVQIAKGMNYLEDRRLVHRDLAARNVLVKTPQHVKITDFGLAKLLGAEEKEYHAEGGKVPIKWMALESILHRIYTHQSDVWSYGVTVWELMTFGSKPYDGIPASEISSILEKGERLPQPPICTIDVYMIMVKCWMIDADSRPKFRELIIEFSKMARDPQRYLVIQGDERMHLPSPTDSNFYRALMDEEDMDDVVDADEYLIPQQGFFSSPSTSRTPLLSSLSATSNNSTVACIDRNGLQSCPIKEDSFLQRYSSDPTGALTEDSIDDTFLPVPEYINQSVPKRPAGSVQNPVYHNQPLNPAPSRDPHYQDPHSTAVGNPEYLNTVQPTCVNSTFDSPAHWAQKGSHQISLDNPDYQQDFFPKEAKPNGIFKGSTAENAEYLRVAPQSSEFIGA
# Outline: as §1
# [13] = target: T13, 384 kinases from the human genome (Homo sapiens, UniProt Q15303); conditions: kinase ERBB4 (Entrez ERBB4)
# T13 construct: purchased Eurofin/DiscoverX
# Outline: as §1
# [14] = target: T14, 384 kinases from the human genome (Homo sapiens, UniProt Q04759); conditions: kinase PRKCQ (Entrez PRKCQ)
# T14 construct: purchased Eurofin/DiscoverX
# Outline: as §1
# [15] = target: T15, 384 kinases from the human genome (Homo sapiens, UniProt P32298); conditions: kinase GRK4 (Entrez GRK4)
# T15 construct: purchased Eurofin/DiscoverX
# Outline: as §1
# [16] = target: T16, 384 kinases from the human genome (Homo sapiens, UniProt O94921); conditions: kinase PFTK1 (Entrez CDK14)
# T16 construct: purchased Eurofin/DiscoverX
# T16 sequence (O94921 whole entry): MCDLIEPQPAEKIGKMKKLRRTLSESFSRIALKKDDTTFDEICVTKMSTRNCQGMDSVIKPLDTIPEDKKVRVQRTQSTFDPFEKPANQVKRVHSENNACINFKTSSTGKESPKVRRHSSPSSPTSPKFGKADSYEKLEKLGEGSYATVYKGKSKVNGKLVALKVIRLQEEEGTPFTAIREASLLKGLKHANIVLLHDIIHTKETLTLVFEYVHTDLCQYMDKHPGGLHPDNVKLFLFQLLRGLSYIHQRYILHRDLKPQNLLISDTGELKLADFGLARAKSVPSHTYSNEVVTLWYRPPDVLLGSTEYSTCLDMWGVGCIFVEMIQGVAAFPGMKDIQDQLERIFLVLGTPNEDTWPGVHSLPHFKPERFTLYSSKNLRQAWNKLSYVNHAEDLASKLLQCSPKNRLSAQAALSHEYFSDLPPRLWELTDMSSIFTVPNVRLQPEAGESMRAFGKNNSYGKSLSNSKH
# Outline: as §1
# [17] = target: T17, 384 kinases from the human genome (Homo sapiens, UniProt O14730); conditions: kinase RIOK3 (Entrez RIOK3)
# T17 construct: purchased Eurofin/DiscoverX
# Outline: as §1
# [18] = target: T18, 384 kinases from the human genome (Homo sapiens, UniProt Q9H093); conditions: kinase SNARK (Entrez NUAK2)
# T18 construct: purchased Eurofin/DiscoverX
# Outline: as §1
# [19] = target: T19, 384 kinases from the human genome (Homo sapiens, UniProt Q9H1R3); conditions: kinase MYLK2 (Entrez MYLK2)
# T19 construct: purchased Eurofin/DiscoverX
# Outline: as §1
# [20] = target: T20, 384 kinases from the human genome (Homo sapiens, UniProt P46734); conditions: kinase MEK3 (Entrez MAP2K3)
# T20 construct: purchased Eurofin/DiscoverX
# Outline: as §1
# [21] = target: T21, 384 kinases from the human genome (Homo sapiens, UniProt P54760); conditions: kinase EPHB4 (Entrez EPHB4)
# T21 construct: purchased Eurofin/DiscoverX
# Outline: as §1
# [22] = target: T22, 384 kinases from the human genome (Homo sapiens, UniProt Q9Y6E0); conditions: kinase MST3 (Entrez STK24)
# T22 construct: purchased Eurofin/DiscoverX
# Outline: as §1
# [23] = target: T23, 384 kinases from the human genome (Homo sapiens, UniProt Q9UEE5); conditions: kinase DRAK1 (Entrez STK17A)
# T23 construct: purchased Eurofin/DiscoverX
# T23 sequence (Q9UEE5 whole entry): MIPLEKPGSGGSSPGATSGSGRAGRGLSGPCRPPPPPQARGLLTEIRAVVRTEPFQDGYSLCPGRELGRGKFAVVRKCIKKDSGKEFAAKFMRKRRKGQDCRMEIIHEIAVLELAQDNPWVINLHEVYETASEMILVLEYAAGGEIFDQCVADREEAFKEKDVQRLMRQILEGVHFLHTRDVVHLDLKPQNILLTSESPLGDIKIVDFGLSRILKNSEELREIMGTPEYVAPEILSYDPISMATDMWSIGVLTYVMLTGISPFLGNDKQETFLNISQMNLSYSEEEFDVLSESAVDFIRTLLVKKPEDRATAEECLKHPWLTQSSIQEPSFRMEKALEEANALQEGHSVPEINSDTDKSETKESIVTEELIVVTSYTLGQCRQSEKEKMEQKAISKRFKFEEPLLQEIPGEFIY
# Outline: as §1
# [24] = target: T24, 384 kinases from the human genome (Homo sapiens, UniProt Q13043); conditions: kinase MST1 (Entrez STK4)
# T24 construct: purchased Eurofin/DiscoverX
# Outline: as §1
# [25] = target: T25, 384 kinases from the human genome (Homo sapiens, UniProt Q15375); conditions: kinase EPHA7 (Entrez EPHA7)
# T25 construct: purchased Eurofin/DiscoverX
# Outline: as §1
# [26] = target: T26, 384 kinases from the human genome (Homo sapiens, UniProt Q15835); conditions: kinase GRK1 (Entrez GRK1)
# T26 construct: purchased Eurofin/DiscoverX
# Outline: as §1
# T1 sequence (Q96BR1 whole entry): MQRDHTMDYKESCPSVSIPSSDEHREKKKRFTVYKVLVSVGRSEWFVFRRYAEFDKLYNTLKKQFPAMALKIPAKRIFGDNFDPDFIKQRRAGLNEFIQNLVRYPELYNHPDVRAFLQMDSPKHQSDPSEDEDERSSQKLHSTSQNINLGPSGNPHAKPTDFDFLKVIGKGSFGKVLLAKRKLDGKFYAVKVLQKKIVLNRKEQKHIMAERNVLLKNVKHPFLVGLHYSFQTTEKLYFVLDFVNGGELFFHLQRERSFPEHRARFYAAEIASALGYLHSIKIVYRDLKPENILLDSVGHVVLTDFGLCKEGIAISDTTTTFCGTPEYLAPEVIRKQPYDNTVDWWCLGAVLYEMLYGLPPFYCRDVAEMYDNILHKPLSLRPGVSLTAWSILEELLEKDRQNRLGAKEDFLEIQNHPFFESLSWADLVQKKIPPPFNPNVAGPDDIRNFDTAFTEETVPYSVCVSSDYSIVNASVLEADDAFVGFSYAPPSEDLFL
smiles,measurement,setting,value
CC(C)C(=O)N1CCN(c2ccc(NC(=O)c3cc4ccccc4o3)cc2Cl)CC1 [Compound 21],Percent Control,[1],91%
same,Percent Control,[2],98%
same,Percent Control,[3],96%
same,Percent Control,[4],97%
same,Percent Control,[5],75%
same,Percent Control,[6],93%
same,Percent Control,[7],99%
same,Percent Control,[8],83%
same,Percent Control,[9],100%
same,Percent Control,[10],100%
same,Percent Control,[11],94%
same,binding to EGFR,[12]; 10 µM of 21,failed to bind
same,Percent Control,[12]; kinase EGFR (Entrez EGFR),89%
same,Percent Control,[13],91%
same,Percent Control,[14],93%
same,Percent Control,[15],99%
same,Percent Control,[16],92%
same,Percent Control,[17],100%
same,Percent Control,[18],96%
same,Percent Control,[19],80%
same,Percent Control,[20],76%
same,Percent Control,[21],77%
same,Percent Control,[22],84%
same,Percent Control,[23],93%
same,Percent Control,[24],97%
same,Percent Control,[25],90%
same,Percent Control,[26],94%

# From article PMC8333425, “Discovery of a dual Ras and ARF6 inhibitor from a GPCR endocytosis screen” (Nature Communications, 2021)
